What was measured:
[1] = target: T1, Alpha-1D adrenergic receptor (Homo sapiens, UniProt P25100); format: cell membranes, HEK293, Membrane; note: in other assays of this panel Not Active means under 50% inhibition at 10 µM
T1 sequence (P25100 whole entry): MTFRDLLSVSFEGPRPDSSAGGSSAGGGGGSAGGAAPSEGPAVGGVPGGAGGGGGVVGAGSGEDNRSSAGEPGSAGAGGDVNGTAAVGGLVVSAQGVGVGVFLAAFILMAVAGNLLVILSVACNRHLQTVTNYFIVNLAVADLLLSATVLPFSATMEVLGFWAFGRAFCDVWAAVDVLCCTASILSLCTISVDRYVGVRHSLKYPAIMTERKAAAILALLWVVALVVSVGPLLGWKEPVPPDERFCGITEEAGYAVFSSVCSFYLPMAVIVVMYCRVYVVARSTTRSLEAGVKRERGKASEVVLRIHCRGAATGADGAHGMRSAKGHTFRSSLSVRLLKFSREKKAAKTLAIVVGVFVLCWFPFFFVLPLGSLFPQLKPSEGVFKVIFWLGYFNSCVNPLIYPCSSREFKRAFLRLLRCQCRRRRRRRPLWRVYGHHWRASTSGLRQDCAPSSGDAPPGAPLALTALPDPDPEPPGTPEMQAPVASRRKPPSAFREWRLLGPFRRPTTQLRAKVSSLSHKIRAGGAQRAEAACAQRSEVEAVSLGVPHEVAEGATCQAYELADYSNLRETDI

D(3) dopamine receptor = D(3) dopamine receptor (Homo sapiens, UniProt P35462); assay: DRUGMATRIX: Dopamine D3 radioligand binding (ligand: [3H] Spiperone); format: cell membranes, CHO, Membrane; conditions: cho
Sequence of D(3) dopamine receptor (P35462 whole entry): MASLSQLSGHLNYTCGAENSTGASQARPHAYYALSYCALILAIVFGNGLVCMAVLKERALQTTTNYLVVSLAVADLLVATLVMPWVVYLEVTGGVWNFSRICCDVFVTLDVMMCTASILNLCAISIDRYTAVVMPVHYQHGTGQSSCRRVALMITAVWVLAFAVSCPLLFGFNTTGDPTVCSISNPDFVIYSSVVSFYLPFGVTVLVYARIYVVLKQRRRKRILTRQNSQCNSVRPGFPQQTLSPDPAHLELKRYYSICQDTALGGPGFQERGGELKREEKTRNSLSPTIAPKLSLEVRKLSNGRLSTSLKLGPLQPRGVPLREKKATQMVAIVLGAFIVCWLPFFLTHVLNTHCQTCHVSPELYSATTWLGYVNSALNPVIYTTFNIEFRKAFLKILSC

[2] = target: T2, Muscarinic acetylcholine receptor M5 (Homo sapiens, UniProt P08912); format: cell membranes, CHO-K1, Membrane; note: in other assays of this panel Not Active means under 50% inhibition at 10 µM
T2 sequence (P08912 whole entry): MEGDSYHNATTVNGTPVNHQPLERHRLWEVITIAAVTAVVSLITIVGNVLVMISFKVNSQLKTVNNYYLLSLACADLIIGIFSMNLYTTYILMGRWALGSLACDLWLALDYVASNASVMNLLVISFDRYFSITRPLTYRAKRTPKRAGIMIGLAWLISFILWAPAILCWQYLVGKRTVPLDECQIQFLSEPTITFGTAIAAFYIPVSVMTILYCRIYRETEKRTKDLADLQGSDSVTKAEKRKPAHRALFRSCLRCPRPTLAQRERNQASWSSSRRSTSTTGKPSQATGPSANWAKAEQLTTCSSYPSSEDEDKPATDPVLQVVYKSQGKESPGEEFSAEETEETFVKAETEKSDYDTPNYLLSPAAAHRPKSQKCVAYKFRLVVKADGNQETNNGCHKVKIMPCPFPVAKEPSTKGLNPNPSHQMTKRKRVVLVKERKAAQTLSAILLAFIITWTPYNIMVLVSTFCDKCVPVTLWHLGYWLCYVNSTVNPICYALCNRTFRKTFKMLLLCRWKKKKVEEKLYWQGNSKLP

Mu-type opioid receptor = Mu-type opioid receptor (Homo sapiens, UniProt P35372); assay: DRUGMATRIX: Opiate mu (OP3, MOP) radioligand binding (ligand: [3H] Diprenorphine); format: cell membranes, CHO-K1, Membrane; conditions: cho-k1; Not Active = under 50% inhibition at 10 µM
Sequence of Mu-type opioid receptor (P35372 whole entry): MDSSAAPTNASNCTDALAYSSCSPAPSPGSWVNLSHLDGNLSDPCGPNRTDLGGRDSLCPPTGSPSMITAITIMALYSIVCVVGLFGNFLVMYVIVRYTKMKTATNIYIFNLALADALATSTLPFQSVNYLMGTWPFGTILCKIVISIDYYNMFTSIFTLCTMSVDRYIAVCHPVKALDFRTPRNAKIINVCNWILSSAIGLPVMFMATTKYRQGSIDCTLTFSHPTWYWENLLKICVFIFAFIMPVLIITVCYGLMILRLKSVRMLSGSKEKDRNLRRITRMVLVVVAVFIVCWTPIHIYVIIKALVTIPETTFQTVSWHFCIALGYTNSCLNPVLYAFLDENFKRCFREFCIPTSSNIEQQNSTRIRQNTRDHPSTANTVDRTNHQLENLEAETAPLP

[3] = target: Mitogen-activated protein kinase 3 (Homo sapiens, UniProt P27361); assay: DRUGMATRIX: Protein Serine/Threonine Kinase, ERK1 enzyme inhibition (substrate: Myelin Basic Protein); set-up: species or system Escherichia coli; conditions: Not Active = under 50% inhibition at 10 µM
Sequence of Mitogen-activated protein kinase 3 (P27361 whole entry): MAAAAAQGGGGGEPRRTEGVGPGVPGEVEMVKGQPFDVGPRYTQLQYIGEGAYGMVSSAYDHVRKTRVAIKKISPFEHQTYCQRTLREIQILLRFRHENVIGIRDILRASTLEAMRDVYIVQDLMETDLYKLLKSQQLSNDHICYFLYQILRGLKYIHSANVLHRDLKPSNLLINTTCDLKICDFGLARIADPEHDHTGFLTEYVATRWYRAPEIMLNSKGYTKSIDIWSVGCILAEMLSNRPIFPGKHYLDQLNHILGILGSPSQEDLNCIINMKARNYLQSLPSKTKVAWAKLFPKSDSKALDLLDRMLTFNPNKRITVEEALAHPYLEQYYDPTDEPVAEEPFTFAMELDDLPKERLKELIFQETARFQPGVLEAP

Cytochrome P450 2D6 = Cytochrome P450 2D6 (Homo sapiens, UniProt P10635); conditions: bti-tn-5b1-4; note: in other assays of this panel Not Active means under 50% inhibition at 10 µM
Sequence of Cytochrome P450 2D6 (P10635 whole entry): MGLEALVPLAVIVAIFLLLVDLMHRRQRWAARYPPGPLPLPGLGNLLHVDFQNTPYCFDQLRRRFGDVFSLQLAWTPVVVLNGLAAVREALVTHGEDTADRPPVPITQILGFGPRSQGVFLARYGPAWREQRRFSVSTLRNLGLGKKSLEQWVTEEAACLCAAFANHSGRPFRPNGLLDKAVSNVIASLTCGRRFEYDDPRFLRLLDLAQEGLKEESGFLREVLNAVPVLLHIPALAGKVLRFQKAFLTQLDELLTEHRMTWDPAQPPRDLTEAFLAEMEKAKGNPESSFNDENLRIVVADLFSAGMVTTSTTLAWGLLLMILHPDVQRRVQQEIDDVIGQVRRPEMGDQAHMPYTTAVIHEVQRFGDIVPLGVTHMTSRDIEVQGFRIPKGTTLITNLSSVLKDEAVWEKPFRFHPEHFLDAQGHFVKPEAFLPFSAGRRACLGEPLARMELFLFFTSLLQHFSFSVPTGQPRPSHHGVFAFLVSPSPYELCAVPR

Compound	IC50 ([1]; hek293)	IC50 (D(3) dopamine receptor)	IC50 ([2]; cho-k1)	IC50 (Mu-type opioid receptor)	IC50 [3]	IC50 (Cytochrome P450 2D6)	Ki (Cytochrome P450 2D6)	Ki ([1]; hek293)	Ki (D(3) dopamine receptor)	Ki ([2]; cho-k1)	Ki [3]	IC50 ([2]; read-out: IC50)	Ki ([2]; read-out: Ki)	IC50 ([3]; read-out: IC50)	IC50 ([1]; read-out: IC50)	Ki ([1]; read-out: Ki)
CO[C@H]1O[C@@H]2O[C@@]3(C)CC[C@H]4[C@H](C)CC[C@@H]([C@H]1C)[C@@]24OO3	Not Active	Not Active	Not Active	Not Active	Not Active	Not Active	Not Active									
O=c1[nH]c2ccccc2c2ccccc12	Not Active	Not Active	Not Active	Not Active	Not Active	Not Active	Not Active									
COc1ccc(C[C@H](N)C(=O)N[C@H]2[C@@H](O)[C@H](n3cnc4c(N(C)C)ncnc43)O[C@@H]2CO)cc1 [PUROMYCIN]	Not Active	Not Active	Not Active	Not Active	Not Active	Not Active	Not Active									
CHROMIC CHLORIDE	Not Active	Not Active	Not Active		Not Active	Not Active	Not Active	Not Active	Not Active	Not Active	Not Active					
C[C@@H]1[C@H](O)[C@@H](C)/C=C/C=C/C=C/C=C/C=C/C=C/C=C/[C@H](O[C@@H]2O[C@H](C)[C@@H](O)[C@H](N)[C@@H]2O)C[C@@H]2O[C@](O)(C[C@@H](O)C[C@@H](O)[C@H](O)CC[C@@H](O)C[C@@H](O)CC(=O)O[C@H]1C)C[C@H](O)[C@H]2C(=O)O [AMPHOTERICIN B]	Not Active	Not Active	Not Active	Not Active		Not Active	Not Active									
Cc1c(N)nc([C@H](CC(N)=O)NC[C@H](N)C(N)=O)nc1C(=O)N[C@H](C(=O)N[C@H](C)[C@@H](O)[C@H](C)C(=O)N[C@H](C(=O)NCCc1nc(-c2nc(C(=O)NCCC[S+](C)C)cs2)cs1)[C@@H](C)O)[C@@H](O[C@@H]1O[C@@H](CO)[C@@H](O)[C@H](O)[C@@H]1O[C@H]1O[C@H](CO)[C@@H](O)[C@H](OC(N)=O)[C@@H]1O)c1c[nH]cn1.[Br-] [BLEOMYCIN A2]	Not Active	Not Active	Not Active	Not Active	Not Active	Not Active	Not Active									
O=C(O)CNCP(=O)(O)O [GLYPHOSATE]	Not Active	Not Active	Not Active		Not Active											
Nc1nc(F)nc2c1ncn2[C@@H]1O[C@H](CO)[C@@H](O)[C@@H]1O [FLUDARABINE]	Not Active	Not Active	Not Active	Not Active	Not Active	Not Active	Not Active									
NCC(CC(=O)O)c1ccc(Cl)cc1 (stereo not drawn) [BACLOFEN]	Not Active	Not Active	Not Active	Not Active	Not Active	Not Active	Not Active									
O=C(Nc1ccc(Cl)c(Cl)c1)c1cc(Cl)cc(Cl)c1O [3,3',4',5-TETRACHLOROSALICYLANILIDE]	Not Active	Not Active	Not Active	Not Active	Not Active	Not Active	Not Active									
Oc1ccccc1 [PHENOL]	Not Active	Not Active	Not Active	Not Active	Not Active	Not Active	Not Active									
CC(C)NCC(O)COc1ccc(CC(N)=O)cc1 (stereo not drawn) [ATENOLOL]	Not Active	Not Active	Not Active	Not Active	Not Active											
CN(Cc1cc(Br)cc(Br)c1N)C1CCCCC1 [BROMHEXINE]	Not Active	Not Active	Not Active	Not Active												
POVIDONE	Not Active	Not Active	Not Active		Not Active	Not Active	Not Active	Not Active	Not Active	Not Active	Not Active					
Nc1ccc(Cc2ccc(N)cc2)cc1	Not Active	Not Active	Not Active		Not Active	Not Active	Not Active									
CARBOXYMETHYLCELLULOSE	Not Active	Not Active	Not Active		Not Active	Not Active	Not Active	Not Active	Not Active	Not Active	Not Active					
CC(N)Cc1c[nH]c2ccc(OCc3cccs3)cc12 (stereo not drawn) [BW-723C86]	Not Active	Not Active	Not Active	Not Active	Not Active											
CCN1C[C@]2(COC)[C@H](O)C[C@H](OC)[C@@]34[C@@H]5C[C@@]6(O)[C@H](OC(=O)c7ccccc7)[C@@H]5[C@@](OC(C)=O)([C@@H]([C@H](OC)[C@H]23)[C@@H]14)[C@@H](O)[C@@H]6OC [ACONITINE]	Not Active	Not Active	Not Active		Not Active	Not Active	Not Active									
NS(=O)(=O)c1cc(C(=O)O)c(NCc2ccco2)cc1Cl [FUROSEMIDE]	Not Active	Not Active	Not Active	Not Active	Not Active											
Cc1cc(C(C)(C)C)c(O)c(C)c1CC1=NCCN1 [OXYMETAZOLINE]		Not Active		Not Active	Not Active							1.33 µM	0.957 µM			
ClC1=C(Cl)[C@]2(Cl)[C@@H]3[C@@H]4C[C@@H]([C@H]5O[C@@H]45)[C@@H]3[C@@]1(Cl)C2(Cl)Cl [DIELDRIN]	Not Active	Not Active	Not Active		Not Active	Not Active	Not Active									
COPPER(II) OXIDE	Not Active	Not Active	Not Active		Not Active	Not Active	Not Active	Not Active	Not Active	Not Active	Not Active					
C=CCO [ALLYL ALCOHOL]	Not Active	Not Active	Not Active		Not Active	Not Active	Not Active									
CCCCCCNC(=O)n1cc(F)c(=O)[nH]c1=O [CARMOFUR]	Not Active	Not Active	Not Active	Not Active										6.12 µM		
CCN(CCO)CCCC(C)Nc1ccnc2cc(Cl)ccc12 (stereo not drawn) [HYDROXYCHLOROQUINE]		Not Active	Not Active	Not Active	Not Active										4.77 µM	2.35 µM
COc1cc([C@@H]2c3cc4c(cc3[C@H](O)[C@H]3COC(=O)[C@H]23)OCO4)cc(OC)c1OC [PODOFILOX]	Not Active	Not Active	Not Active		Not Active	Not Active	Not Active									
c1ccc(Cn2ccnc2)cc1	Not Active	Not Active	Not Active	Not Active	Not Active											
C[C@H]1C[C@H]2[C@@H]3CCC4=CC(=O)C=C[C@]4(C)[C@@]3(F)[C@@H](O)C[C@]2(C)[C@@]1(O)C(=O)CO [BETAMETHASONE]	Not Active	Not Active	Not Active	Not Active	Not Active											
C=C(Cl)Cl [1,1-DICHLOROETHENE]	Not Active	Not Active	Not Active		Not Active	Not Active	Not Active									
C=CCN1CC[C@]23c4c5ccc(O)c4O[C@H]2/C(=N/N=C2\CC[C@@]4(O)[C@H]6Cc7ccc(O)c8c7[C@@]4(CCN6CC=C)[C@H]2O8)CC[C@@]3(O)[C@H]1C5 [NALOXONAZINE]	Not Active	Not Active	Not Active		Not Active	Not Active	Not Active									

From ChEMBL document CHEMBL1909046, “DrugMatrix in vitro pharmacology data”
